Laboratory results: patent publication US20230277508A1, “USE OF COMPOUND AS CYP2E1 INHIBITOR” (SHANGHAI LING XI BIOTECHNOLOGY DEVELOPMENT CO., LTD., priority 2020, published 2023)

How the values were obtained:
CYP2A6 = molecular target: T1, CYP2A6 (Homo sapiens, UniProt P11509); experiment: Determination of selectivity of a CYP2E1 inhibitor: CYP2A6; assay type: biochemical; conditions: mixed human liver microsome, 2.5 μM coumarin probe; read-out: IC50 for 2A6 inhibition
T1 construct: With a mixed liver microsome of a healthy individual as a research object; from tissue; host or cells: mixed (pooled) human liver microsomes of healthy individuals
T1 sequence (P11509 whole entry): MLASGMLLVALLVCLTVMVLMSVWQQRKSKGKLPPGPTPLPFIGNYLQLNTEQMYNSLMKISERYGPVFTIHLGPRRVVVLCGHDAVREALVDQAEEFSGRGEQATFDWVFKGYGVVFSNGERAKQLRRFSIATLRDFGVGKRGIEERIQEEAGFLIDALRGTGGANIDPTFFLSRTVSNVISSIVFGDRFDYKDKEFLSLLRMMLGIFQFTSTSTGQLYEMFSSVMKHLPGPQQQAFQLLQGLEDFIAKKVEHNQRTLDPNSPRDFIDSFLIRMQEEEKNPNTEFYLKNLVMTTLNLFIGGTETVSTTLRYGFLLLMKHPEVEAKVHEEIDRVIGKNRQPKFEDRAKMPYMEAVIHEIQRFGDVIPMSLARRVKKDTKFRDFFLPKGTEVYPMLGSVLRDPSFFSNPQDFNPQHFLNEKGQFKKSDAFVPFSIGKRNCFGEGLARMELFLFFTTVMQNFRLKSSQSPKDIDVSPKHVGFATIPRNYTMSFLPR
Description: With a mixed liver microsome of a healthy individual as a research object, probe drugs CYP1A2, CYP2A6, CYP2B6, CYP2C8, CYP2C9, CYP2C19, CYP2D6, CYP2E1, and CYP3A4 were selected to determine an in vitro inhibitory effect of an inhibitor to be tested on the metabolism of the probe drugs CYP1A2, CYP2A6, CYP2B6, CYP2C8, CYP2C9, CYP2C19, CYP2D6, CYP2E1, and CYP3A4 for the mixed liver microsome of the healthy human, and the selectivity of the inhibitor to be tested for a CYP2E1 inhibitory effect was evaluated.
The CYP1A2 probe is 6.25 μM to 800 μM phenacetin or 27.5 μM to 12,520 μM caffeine; • the CYP2A6 probe is 0.156 μM to 20 μM coumarin or 12.5 μM to 2,000 μM nicotine; • the CYP2B6 probe is 7.8 μM to 500 μM bupropion or 0.25 mM to 30 mM cyclophosphamide; • the CYP2C8 probe is 2.5 μM to 80 μM paclitaxel or 0.125 μM to 128 μM amodiaquine; • the CYP2C9 probe is 31.25 μM to 2,000 μM tolbutamide or 0.1 μM to 200 μM diclofenac; • the CYP2C19 probe is 3.9 μM to 500 μM omeprazole or 1.95 μM to 1,000 μM mephenytoin; • the CYP2D6 probe is 0.625 μM to 96 μM dextromethorphan or 0.0195 μM to 80 μM propafenone; and • the CYP3A4 probe is 0.39 μM to 50 μM midazolam or 1.98 μM to 1,000 μM testosterone.
An incubation system in a total volume of 100 μL was adopted, including a substrate, an inhibitor of different concentrations, a liver microsomal protein, and PBS. […]

[1] = system: DEN-induced rat liver damage; experiment: DEN-induced rat liver damage model; assay type: in vivo, SD rat; conditions: plasma, vs model group
Method: Experimental method: An SD rat liver damage model was constructed through intermittent intraperitoneal injection of DEN. A model group was injected intraperitoneally with DEN at 50 mg/kg twice a week in the first 4 weeks and then once a week in the 5th to 8th weeks. An SMI0 intervention group, which was injected with DEN at the amount and the way the same as that in the model group, was divided into SMI0+DEN low-dose and high-dose groups and an SMI0 high-dose continuous administration group, where the SMI0+DEN low-dose and high-dose groups were intragastrically administered with the compound SMI0 at 30 mg/kg and 150 mg/kg 5 min before DEN administration each time, respectively; and the SMI0 high-dose continuous administration group was intragastrically administered with the compound SMI0 at 150 mg/kg every day from the 1st week to the 8th week. At the end of molding, blood was collected from the orbit, and plasma liver function indexes of rats were determined by an automatic biochemical analyzer (model group, n=10 rats; SMI0 compound low-dose group, n=21 rats; (150 mg/kg)^a, SMI0 compound+DEN high-dose group, n=28 rats; and (150 mg/kg)^b, SMI0 compound high-dose continuous administration group, n=24 rats].

[2] = system: HepG2 liver cancer cells / macrophage RAW264.7; experiment: HepG2 cells co-cultivated with RAW264.7 macrophage supernatant; assay type: cell-based; conditions: SMI0 intervention groups (especially 4 μmol/L) vs macrophage co-cultivation group, P<0.001
Method: Experimental method: A supernatant of a murine macrophage RAW264.7 was collected to establish a co-cultivation system with the HepG2 liver cancer cell, thereby simulating a macrophage inflammatory microenvironment of liver cancer. In the SMI0 intervention groups, SMI0 was added at different concentrations (0 μmol/L, 0.16 μmol/L, 0.8 μmol/L, 4 μmol/L, 20 μmol/L, and 100 μmol/L) while interleukin was added for induction. Culture supernatants of the SMI0 intervention groups were collected to prepare conditional media. HepG2 liver cancer cells in a logarithmic growth phase were adopted. The proliferation activity of HepG2 was determined by a CCK8 method, a migration ability of HepG2 was determined by wound-healing assay, and an apoptosis ability of HepG2 was determined by FCM.

[3] = SMI0 intervention group, 8 weeks

CC(=O)c1scnc1C [SMI0]
IC50 (CYP2A6): 76.2 µM | albumin (ALB2) level ([1]; SMI0 intervention group (30, 150 mg/kg ig before DEN; 150 mg/kg daily), 8 weeks): significantly increased | alanine aminotransferase (ALTL) level [1, 3]: significantly reduced | alkaline phosphatase (ALP) (ALP2S) level [1, 3]: significantly reduced | cholinesterase (CHE2) level [1, 3]: significantly increased | direct bilirubin (BILD2) level [1, 3]: significantly reduced | glutamyl transpeptidase (GGTI2) level [1, 3]: significantly reduced | total bilirubin (BILT3) level [1, 3]: significantly reduced | TP2 level ([1]; SMI0 low-dose group (30 mg/kg ig)): significantly increased | apoptosis ability of HepG2 liver cancer cells [2]: significantly enhanced | migration ability of HepG2 liver cancer cells [2]: significantly weakened | proliferation activity of HepG2 liver cancer cells [2]: significantly weakened
